Laboratory results as given in patent US20060057073A1, “Wet granulation process” (Pari GmbH, priority 2002, published 2006).

Columns and labels:
[1] = Bulk density according to Ph. Eur.; type: physicochemical
[2] = drug substance as free acid; cited from earlier work
[3] = Particle size by laser diffraction (Malvern MasterSizer 2000, dry dispersing); type: physicochemical; settings: mean diameter of the volume distribution; mean of three measurements
[4] = base; cited from earlier work

| SMILES | Bulk density [1] | intrinsic pH [2] | Aqueous solubility (Aqueous solubility) | Aqueous solubility (in words) (Aqueous solubility; in water) | D50% (laser diffraction) [3] | pK [4] |
| --- | --- | --- | --- | --- | --- | --- |
| C[C@H]1[C@H](NC(=O)/C(=N\OC(C)(C)C(=O)O)c2csc(N)n2)C(=O)N1S(=O)(=O)O [Aztreonam] | 0.49 g/mL | about 1 | <0.1% | nearly insoluble |  |  |
| COc1ccc(Cc2nccc3cc(OC)c(OC)cc23)cc1OC [papaverine] | 0.41 g/mL |  |  |  | 28.5 μm | 8.07 |
